In one assay the target is COX-2. The assay is described as follows: Evaluation of COX-2 activity in vitro (PGE2 ELISA, recombinant enzyme). Format: biochemical, human or murine. The conditions noted are these: arachidonic acid 10 μM, pH 8.0, pre-incubation 10-20 minutes. As for the experimental part:
The COX-2 inhibition activity of the compounds of this invention illustrated in the Examples was determined by the following methods.
(§1) a. Preparation of recombinant COX baculoviruses
(§2) Recombinant COX-1 and COX-2 were prepared as scribed by Gierse et al, [J. Biochem., 305, 479-84 (1995)]. […] Recombinant baculoviruses were isolated by transfecting 4 μg of baculovirus transfer vector DNA into SF9 insect cells (2×10^8) along with 200 ng of linearized baculovirus plasmid DNA by the calcium phosphate method. See M. D. Summers and G. E. Smith, A Manual of Methods for Baculovirus Vectors and Insect Cell Culture Procedures, Texas Agric. Exp. Station Bull. 1555 (1987). Recombinant viruses were purified by three rounds of plaque purification and high titer (10^7 -10^8 pfu/mL) stocks of virus were prepared. For large scale production, SF9 insect cells were infected in 10 liter fermentors (0.5×10^6 /mL) with the recombinant baculovirus stock such that the multiplicity of infection was 0.1. After 72 hours the cells were centrifuged and the cell pellet homogenized in Tris/Sucrose (50 mM: 25%, pH 8.0) containing 1% 3-[(3-cholamidopropyl)dimethylammonio]-1-propanesulfonate (CHAPS). The nomogenate was centrifuged at 10,000×G for 30 minutes, and the resultant supernatant was stored at -80° C. before being assayed for COX activity.
(§3) COX activity was assayed as PGE2 formed/μg protein/time using an ELISA to detect the prostaglandin released. CHAPS-solubilized insect cell membranes containing the appropriate COX enzyme were incubated in a potassium phosphate buffer (50 mM, pH 8.0) containing epinephrine, phenol, and heme with the addition of arachidonic acid (10 μM). […] Any reaction between the arachidonic acid and the enzyme was stopped after ten minutes at 37° C./room temperature by transferring 40 μl of reaction mix into 160 μl ELISA buffer and 25 μM indomethacin. The PGE2 formed was measured by standard ELISA technology (Cayman Chemical).
A general note: ELISA stands for enzyme-linked immunosorbent assay.

Another assay has as its system rat paw edema. Briefly: Rat Carrageenan Foot Pad Edema Test. The class given is in vivo, Male Sprague-Dawley rats. Conditions: oral, 3 h after carrageenan. The method, then:
Rat Carrageenan Foot Pad Edema Test
Male Sprague-Dawley rats were selected in each group so that the average body weight was as close as possible. Rats were fasted with free access to water for over sixteen hours prior to the test. […] One hour later a subplantar injection of 0.1 mL of 1% solution of carrageenan/sterile 0.9% saline was administered and the volume of the injected foot was measured with a displacement plethysmometer connected to a pressure transducer with a digital indicator. Three hours after the injection of the carrageenan, the volume of the foot was again measured.

For another assay, the target named is COX-1. Briefly: Evaluation of COX-1 activity in vitro (PGE2 ELISA, recombinant enzyme). The class given is biochemical, human or murine. Conditions: arachidonic acid 10 μM, pH 8.0, pre-incubation 10-20 minutes. The method, then: as §1, §2, §3
For assay [1], the system named is hyperalgesic foot withdrawal (rat). Briefly: Rat Carrageenan-induced Analgesia Test. The conditions noted are these: oral, 3 h after carrageenan. The class given is in vivo, Male Sprague-Dawley rats. As for the experimental part:
Rat Carrageenan-induced Analgesia Test
Male Sprague-Dawley rats were treated as previously described for the Carrageenan Foot Pad Edema test. Three hours after the injection of the carrageenan, the rats were placed in a special plexiglass container with a transparent floor having a high intensity lamp as a radiant heat source, positionable under the floor. After an initial twenty minute period, thermal stimulation was begun on either the injected foot or on the contralateral uninjected foot. A photoelectric cell turned off the lamp and timer when light was interrupted by paw withdrawal. The time until the rat withdraws its foot was then measured. The withdrawal latency in seconds was determined for the control and drug-treated groups, and percent inhibition of the hyperalgesic foot withdrawal determined.

As usually defined, the IC50 is the concentration at which inhibition is half-maximal. In the case of `CS(=O)(=O)c1ccc(-c2c(-c3ccccc3)noc2C(F)F)cc1` [Example 47, 5-Difluoromethyl-4-(4-methylsulfonylphenyl)-3-phenylisoxazole], the concentration for half-maximal inhibition (IC50) on COX-2 was below 0.1 µM; on COX-1 it was above 100 µM. The “RAT PAW EDEMA % Inhibition” value in the assay on rat paw edema (@ 10 mg/kg body weight) is 24%.
In the case of `CCc1noc(-c2ccccc2)c1-c1ccc(S(N)(=O)=O)cc1` [Example 14, 4-[3-Ethyl-5-phenylisoxazol-4-yl]benzenesulfonamide], the “ANALGESIA % Inhibition” value in assay [1] (*@ 30 mg/kg) came to 27%. Further, the IC50 at COX-2 is below 0.1 µM; on COX-1, 100 µM.
As for `NS(=O)(=O)c1ccc(-c2c(-c3ccccc3)noc2CCO)cc1` [Example 66, 4-[5-(2-Hydroxyethyl)-3-phenylisoxazol-4-yl]benzenesulfonamide], the “ANALGESIA % Inhibition” value in assay [1] (*@ 30 mg/kg) amounted to 49%. Also, the half-maximal inhibitory concentration (IC50) at COX-2 is below 0.1 µM; at COX-1, above 100 µM. Besides, the “RAT PAW EDEMA % Inhibition” value in the assay on rat paw edema (*@ 30 mg/kg) was 43%.
For `NS(=O)(=O)c1ccc(-c2c(-c3ccccc3)noc2C(F)F)cc1` [Example 1j, 4-[5-difluoromethyl-3-phenylisoxazol-4-yl]benzenesulfonamide], the “ANALGESIA % Inhibition” value in assay [1] (@ 10 mg/kg body weight) was 28%. In addition, the 50% inhibitory concentration (IC50) was below 0.1 µM at COX-2 and above 100 µM on COX-1. For the same compound, the “RAT PAW EDEMA % Inhibition” value in the assay with rat paw edema (@ 10 mg/kg body weight) was determined as 37%.
On to `CC(C)(O)CCCc1onc(-c2ccccc2)c1-c1ccc(S(N)(=O)=O)cc1` [Example 57, 4-[5-(4-Hydroxy-4-methylpentyl)-3-phenylisoxazol-4-yl]benzenesulfonamide], for which the “ANALGESIA % Inhibition” value in assay [1] (*@ 30 mg/kg) turned out to be 5%. In addition, the IC50 was 0.1 µM at COX-2 and above 100 µM at COX-1. Moreover, the “RAT PAW EDEMA % Inhibition” value in the assay on rat paw edema (*@ 30 mg/kg) worked out at 23%.
On to `CC(C)(O)COCc1onc(-c2ccccc2)c1-c1ccc(S(N)(=O)=O)cc1` [Example 56, 4-[5-(2-Methyl-2-hydroxy-1-n-propyloxymethyl)-3-phenylisoxazol-4-yl]benzenesulfonamide], for which the “ANALGESIA % Inhibition” value in assay [1] (*@ 30 mg/kg) was 27%. The half-inhibitory concentration (IC50) at COX-2 was 0.2 µM; on COX-1, above 100 µM. For the same compound, the “RAT PAW EDEMA % Inhibition” value in the assay on rat paw edema (*@ 30 mg/kg) is reported as 29%.
`Cc1onc(-c2ccccc2)c1-c1ccc(S(N)(=O)=O)cc1` [Example 1, 4-[5-Methyl-3-phenylisoxazol-4-yl]benzenesulfonamide]: the “ANALGESIA % Inhibition” value in assay [1] (@ 10 mg/kg body weight) is given as 33%. The “RAT PAW EDEMA % Inhibition” value with rat paw edema (@ 10 mg/kg body weight) was found to be 29%.
For the compound `NS(=O)(=O)c1ccc(-c2c(-c3ccccc3)noc2CO)cc1` [Example 10, 4-[5-Hydroxymethyl-3-phenylisoxazol-4-yl]benzenesulfonamide], the “ANALGESIA % Inhibition” value in assay [1] (@ 10 mg/kg body weight) was found to be 74%. Also, the “RAT PAW EDEMA % Inhibition” value in the assay with rat paw edema (@ 10 mg/kg body weight) was 57%. Further, at COX-1, the IC50 is above 100 µM.
On to `Cc1onc(-c2ccc(F)cc2)c1-c1ccc(S(N)(=O)=O)cc1` [Example 4b, 4-[3-(4-fluorophenyl)-5-methyl-isoxazol-4-yl]benzenesulfonamide], for which the half-inhibitory concentration (IC50) at COX-2 was below 0.1 µM; on COX-1, above 100 µM.
Take `CC(C)c1noc(-c2ccccc2)c1-c1ccc(S(N)(=O)=O)cc1` [Example 15, 4-[3-isopropyl-5-phenylisoxazol-4-yl]benzenesulfonamide]: the IC50 at COX-2 is 0.1 µM; at COX-1, 59 µM.
As for `NS(=O)(=O)c1ccc(-c2c(-c3ccccc3)noc2CC2CCCCC2)cc1` [Example 1h, 4-[5-cyclohexylmethyl-3-phenylisoxazol-4-yl]benzenesulfonamide], the IC50 was below 0.1 µM on COX-2 and 4.7 µM at COX-1.
For `Cc1ccc(-c2noc(C)c2-c2ccc(S(N)(=O)=O)cc2)cc1F` [Example 4c, 4-[3-(3-fluoro-4-methylphenyl)-5-methyl-isoxazol-4-yl]benzenesulfonamide], the IC50 is below 0.1 µM at COX-2 and 66.5 µM on COX-1.
For `Cc1onc(-c2cc(F)cc(F)c2)c1-c1ccc(S(N)(=O)=O)cc1` [Example 42, 4-[3-(3,5-Difluorophenyl)-5-methylisoxazol-4-yl]benzenesulfonamide] the same measures were 22.5 µM and above 100 µM.
Regarding `CS(=O)(=O)c1ccc(-c2c(-c3ccccc3)noc2CC(=O)O)cc1` [Example 8, [4-[4-(methylsulfonyl)phenyl]-3-phenylisoxazol-5-yl]acetic acid], the 50% inhibitory concentration (IC50) at COX-2 and at COX-1 was above 100 µM each time.
Take `Cc1noc(-c2cccc(Cl)c2)c1-c1ccc(S(N)(=O)=O)cc1` [Example 24, 4-[5-(3-Chlorophenyl)-3-methylisoxazol-4-yl]benzenesulfonamide]: the half-inhibitory concentration (IC50) at COX-2 was 8.4 µM; at COX-1 it was above 100 µM.
For `COc1ccc(-c2noc(C)c2-c2ccc(S(N)(=O)=O)cc2)cc1F` [Example 4, 4-[3-(3-Fluoro-4-methoxyphenyl)-5-methylisoxazol-4-yl]benzenesulfonamide] the same measures were 3 µM and above 100 µM.
For `NS(=O)(=O)c1ccc(-c2c(-c3ccccc3)noc2OS(=O)(=O)C(F)(F)F)cc1` [Example 39, 4-[5-Trifluoromethansulfonoxy-3-phenylisoxazol-4-yl]benzenesulfonamide] the same measures were 0.9 µM and above 100 µM.
